Positions of bridges follow the written chain, without caps; N, C: chain ends. Non-standard residues stand in square brackets, D forms with d. Residues, ends and D or L forms follow the SMILES beside them. *: point of attachment. 5FAM = O=C1OC2(c3ccc(O)cc3Oc3cc(O)ccc32)c2ccc(C(=O)*)cc21; βAla = NCCC(=O)O

Data set [1] deals with TmrAB. Kind of data set: Conformational epitope test, CP^F anisotropy with TmrAB and SDS. The class given is binding, Thermus thermophilus. The procedure: (§1) In order to analyze the binding affinity and specificity of CPs to TmrAB, we established a fluorescence polarization assay. Fluorescein-labeled CP^Fs were incubated with increasing concentrations of TmrAB reconstituted in liposomes at a protein-to-lipid ratio of 1:20 (w/w). […] To address whether the CPs recognize a linear or non-linear epitope, we examined the binding of CP^Fs after disrupting the quaternary and tertiary structure of TmrAB complexes by adding anionic detergent SDS.
Figure 2. […] (A, B) Equilibrium binding analysis. Fluorescence anisotropy of CP^Fs (50 nM) was determined at λex/em = 485/520 nm with increasing concentrations of TmrAB which was reconstituted in liposomes. TmrAB concentrations were calculated based on the random (50/50%) orientation in proteoliposomes ([Stefan et al., 2020]). As a control, equal amounts of empty liposomes were added to CP^Fs (dashed lines, open symbols). The difference in fluorescence polarization was normalized to free (0%) and 100% bound CP^F. Mean values ± SD (n = 3) are shown, and data were analyzed by a one-site binding model. […] Streptavidin beads loaded with CP14^B (1 µM) were mixed with purified TmrAB (60 nM) for 1 hr at 4°C. Beads were washed and bound TmrAB was eluted by adding SDS loading buffer for 10 min at 95°C. Amounts of TmrA in input (I), flow-through (FT), wash fraction (W), and eluate (E) were analyzed by SDS-PAGE and immunoblotting (α-His). Beads without CP^B served as negative control (right panel). (D) One-step purification of TmrAB via immobilized CP14^B matrices. Streptavidin-agarose beads were loaded with CP14^B (1 µM) and mixed with DDM-solubilized membranes of E. coli containing TmrAB as described in (C). Bound TmrAB was eluted in SDS loading buffer and analyzed by SDS-PAGE (silver stain). (E) Native mass spectrometry. TmrAB (4 µM) was buffer exchanged to ESI buffer and incubated with a 2-fold molar excess of CP14^F for 10 min on ice. Protein complexes were investigated by ESI-TOF-mass spectrometry. […] Figure 2—source data 1. Source data for Figure 2. Figure 2—figure supplement 1. […] (A) CP^Bs-mediated isolation of solubilized TmrAB. Streptavidin matrices were loaded with CP^Bs (1 µM) and incubated with purified TmrAB (60 nM) for 1 hr at 4°C. Beads without CP^Bs served as control (see Figure 2C). Bound TmrAB complexes were eluted by the addition of SDS loading buffer for 10 min at 95°C. TmrAB in input (I), flow-through (FT), washing fraction (W), and eluate (E) was analyzed by SDS-PAGE and immunoblotting (α-His). (B) Isolation of TmrAB using CP13^B. Streptavidin matrices were loaded with CP13^B (1 µM) and mixed with DDM-solubilized membranes of E. coli expressing TmrAB as described in (A). Bound TmrAB complexes were eluted in SDS loading buffer and analyzed by SDS-PAGE (silver stain). (C) Formation of CP^F-TmrAB complexes. DDM-solubilized TmrAB (1 µM) was incubated with CP12^F, CP13^F, CP14^F (2 µM each), or CP6^F (5 µM) for 10 min on ice. CP^F-TmrAB complexes were analyzed by gel filtration. […] (D) Conformational epitopes. CP^Fs (50 nM) were incubated with TmrAB (0.6 µM for CP6^F and CP13^F, 0.7 µM for CP12^F, 0.5 µM for CP14^F) in the presence of 1% (v/v) SDS. Fluorescence anisotropy was determined at λex/em = 485/520 nm. […] Figure 2—figure supplement 1—source data 1. Source Data for Figure 2—figure supplement 1. [drawing 2] Figure 2—figure supplement 2. Analysis of CP^F-TmrAB complexes by native mass spectrometry.

For data set [2], the system named is TmrAB. The protocol:
as §1
Figure 2. […] (A, B) Equilibrium binding analysis. Fluorescence anisotropy of CP^Fs (50 nM) was determined at λex/em = 485/520 nm with increasing concentrations of TmrAB which was reconstituted in liposomes. TmrAB concentrations were calculated based on the random (50/50%) orientation in proteoliposomes ([Stefan et al., 2020]). […] The difference in fluorescence polarization was normalized to free (0%) and 100% bound CP^F. Mean values ± SD (n = 3) are shown, and data were analyzed by a one-site binding model. […] Amounts of TmrA in input (I), flow-through (FT), wash fraction (W), and eluate (E) were analyzed by SDS-PAGE and immunoblotting (α-His). […] Bound TmrAB was eluted in SDS loading buffer and analyzed by SDS-PAGE (silver stain). […] TmrAB in input (I), flow-through (FT), washing fraction (W), and eluate (E) was analyzed by SDS-PAGE and immunoblotting (α-His). […] CP^F-TmrAB complexes were analyzed by gel filtration. […]

Setting [3] is: listed as CPF: CP^F 50 nM alone.
The mark [4] stands for this setting: listed as SDS: CP^F 50 nM + TmrAB + 1% (v/v) SDS.
The mark [5] stands for this setting: listed as TmrAB: CP^F 50 nM + TmrAB (0.6 µM CP6^F/CP13^F, 0.7 µM CP12^F, 0.5 µM CP14^F).

Consider `CC(C)C[C@@H]1NC(=O)[C@H](Cc2ccccc2)NC(=O)CNC(=O)[C@H](CO)NC(=O)[C@H](Cc2ccccc2)NC(=O)[C@H](CC(=O)O)NC(=O)[C@@H]2CCCN2C(=O)[C@H]([C@@H](C)O)NC(=O)[C@@H](Cc2ccc(O)cc2)NC(=O)CSC[C@@H](C(=O)NCC(=O)N[C@@H](CO)C(=O)NCCC(=O)NCCC(=O)N[C@@H](CCCNC(=N)N)C(=O)N[C@@H](CCCCNC(=O)c2ccc3c(c2)C(=O)OC32c3ccc(O)cc3Oc3cc(O)ccc32)C(N)=O)NC(=O)[C@H](C)NC(=O)[C@H](CC(N)=O)NC(=O)[C@H](CCCNC(=N)N)NC(=O)[C@H](CC(C)C)NC(=O)[C@H](Cc2ccccc2)NC(=O)[C@H](C)NC1=O` [CP12] ({CH2CO}-[dY]TPDFSGFLAFLRNACGS[βAla][βAla]RK(5FAM)-NH2; thioether N-16), for which the values for the Fluorescence anisotropy in the data set on TmrAB [1] (setting [3]), in the data set on TmrAB [1] (setting [4]) and with TmrAB [1] (setting [5]) were 0.0250, 0.0265 and 0.1604, respectively.

Regarding `CC[C@H](C)[C@@H]1NC(=O)[C@H]([C@@H](C)O)NC(=O)[C@H](CC(C)C)NC(=O)[C@H](Cc2c[nH]c3ccccc23)NC(=O)[C@H](Cc2ccccc2)NC(=O)[C@H](CC(N)=O)NC(=O)[C@H](CCC(=O)O)NC(=O)[C@H](CC(C)C)NC(=O)[C@H](CS)NC(=O)[C@H](Cc2c[nH]cn2)NC(=O)[C@H](CO)NC(=O)[C@@H](Cc2ccc(O)cc2)NC(=O)CSC[C@@H](C(=O)NCC(=O)N[C@@H](CO)C(=O)NCCC(=O)NCCC(=O)N[C@@H](CCCNC(=N)N)C(=O)N[C@@H](CCCCNC(=O)c2ccc3c(c2)C(=O)OC32c3ccc(O)cc3Oc3cc(O)ccc32)C(N)=O)NC(=O)[C@H](CC(C)C)NC1=O` [CP6] ({CH2CO}-[dY]SHCLENFWLTILCGS[βAla][βAla]RK(5FAM)-NH2; thioether N-14), the values for the Fluorescence anisotropy with TmrAB [1] (setting [3]), with TmrAB [1] (setting [4]) and in the data set with TmrAB [1] (setting [5]) were 0.0222, 0.0146 and 0.1093, respectively.

In the case of `CC(C)[C@@H]1NC(=O)[C@H](Cc2ccccc2)NC(=O)[C@@H]2CCCN2C(=O)[C@H](CC(N)=O)NC(=O)[C@H](Cc2c[nH]c3ccccc23)NC(=O)[C@H](C(C)C)NC(=O)[C@H](Cc2ccc(O)cc2)NC(=O)[C@H](Cc2ccccc2)NC(=O)[C@@H](Cc2ccc(O)cc2)NC(=O)CSC[C@@H](C(=O)NCC(=O)N[C@@H](CO)C(=O)NCCC(=O)NCCC(=O)N[C@@H](CCCNC(=N)N)C(=O)N[C@@H](CCCCNC(=O)c2ccc3c(c2)C(=O)OC32c3ccc(O)cc3Oc3cc(O)ccc32)C(N)=O)NC(=O)[C@H](CCCCN)NC(=O)[C@H](Cc2ccccc2)NC1=O` [CP14] ({CH2CO}-[dY]FYVWNPFVFKCGS[βAla][βAla]RK(5FAM)-NH2; thioether N-12; C-terminus assumed), the “Isolation of TmrAB from solubilized E. coli membranes” value in the data set on TmrAB [2] is reported as “isolate intact TmrAB complexes”. The values for the Fluorescence anisotropy with TmrAB [1] (setting [3]), in the data set on TmrAB [1] (setting [4]) and in the data set on TmrAB [1] (setting [5]) were 0.0267, 0.0311 and 0.1410, respectively.

As to `CC[C@H](C)[C@@H]1NC(=O)[C@H](Cc2c[nH]c3ccccc23)NC(=O)[C@H](CC(N)=O)NC(=O)[C@H](C)NC(=O)[C@H](CO)NC(=O)[C@@H]2CCCN2C(=O)[C@H](CC(=O)O)NC(=O)[C@@H](Cc2ccc(O)cc2)NC(=O)CSC[C@@H](C(=O)NCC(=O)N[C@@H](CO)C(=O)NCCC(=O)NCCC(=O)N[C@@H](CCCNC(=N)N)C(=O)N[C@@H](CCCCNC(=O)c2ccc3c(c2)C(=O)OC32c3ccc(O)cc3Oc3cc(O)ccc32)C(N)=O)NC(=O)[C@H]([C@@H](C)O)NC(=O)[C@H](CC(C)C)NC(=O)[C@H](CC(C)C)NC(=O)[C@H](C(C)C)NC(=O)[C@H](CC(C)C)NC1=O` [CP13] ({CH2CO}-[dY]DPSANWILVLLTCGS[βAla][βAla]RK(5FAM)-NH2; thioether N-14; C-terminus assumed), the “Isolation of TmrAB from solubilized E. coli membranes” value in the data set on TmrAB [2] is recorded as “isolate intact TmrAB complexes”. In addition, the Fluorescence anisotropy in the data set with TmrAB [1] (setting [3]) is listed as 0.0252; with TmrAB [1] (setting [4]) it was 0.0310; with TmrAB [1] (setting [5]), 0.1217.

The values are drawn from PMC8116058, “De novo macrocyclic peptides dissect energy coupling of a heterodimeric ABC transporter by multimode allosteric inhibition” (eLife, 2021).
